Test results reported in patent publication US11369611B2, “Therapeutic compounds and uses thereof” (Kala Pharmaceuticals, Inc., priority 2013, dated 2022).

Tests used:
[1] = Particle size of compounds milled with PLURONIC F127 as MPP (dynamic light scattering); format: physicochemical; settings: formulated as MPP, milled with PLURONIC F127, DPBS buffered
Text: The compounds of the present invention synthesized in accordance with the preceding Examples were formulated as mucus penetrating particles (MPP). Specifically, Compound 4 of Example 1, Compound 9 of Example 2, and Compound 13 of Example 3 were each milled in the presence of PLURONIC F127 (F127) to determine whether F127 1) aids particle size reduction to several hundreds of nanometers and 2) physically (non-covalently) coats the surface of generated nanoparticles with a mucoinert coating that would minimize particle interactions with mucus constituents and prevent mucus adhesion.
A milling procedure was employed in which an aqueous dispersion containing coarse drug particles and PLURONIC F127 (F127) was milled with grinding medium until particle size was reduced below 400 nm as measured by dynamic light scattering. Table 4 lists the size of particles and polydispersity index (a measure of the width of the particle size distribution) generated using this technique. In this example suspensions were buffered using DPBS (Dulbecco's Phosphate-Buffered Saline) which yields a suspension that is both isotonic and has a physiologically relevant pH.

[2] = Draize ocular irritation assessment; format: in vivo; settings: MPP 0.5%, 50 μL topical BID 5 days, Dutch-belted rabbits
Text: Dutch-belted rabbits were used in these studies.

Question: What does the source list for `COc1cc2c(Oc3ccc4[nH]c(C)cc4c3F)ncnc2cc1OCCCN1CCC2(CC1)COC2` [Compound 4, 7-(3-(4-(4-fluoro-2-methyl-1H-indol-5-yloxy)-6-methoxyquinazolin-7-yloxy)propyl)-2-oxa-7-azaspiro[3.5]nonane]?
Answer: Particle Size [1]: 270 nm; Draize-Ocular Irritation [2]: no irritation was seen
